For test [1], the system named is S. epidermidis ATCC 35984. The test is described as follows: Derivatives combined with vancomycin or cefazolin (FIC index). It is filed as cell-based. To be noted: S. epidermidis ATCC 35984. The source says: Combination antimicrobial therapy is widely used to take advantage of different mechanisms of action. It may potentiate the effect of individual antimicrobial agents by synergic action (Bijnsdorp et al. [2011]; Cokol et al. [2011]). The glycopeptide antibiotics, such as vancomycin, can bind the peptidoglycan side chains in the cell wall and prevent cross-linking during cell wall synthesis. Vancomycin has been considered to be one of the most reliable therapeutic agents against staphylococcal infections, but it is unable to clear biofilms even at high concentration (128 mg/l) (Climo et al. [1999]; Darouiche et al. [1994]; Tenover et al. [2001]). […] YycGF also plays an important role in the synthesis of peptidoglycan in B. subtilis and S. aureus (Bisicchia et al. [2007]; Dubrac and Msadek [2004]). In a preliminary study, we assessed the effects of the combined application of the derivatives with vancomycin and cefazolin against S. epidermidis ATCC 35984 according to the method of Odds ([2003]) (Cottagnoud et al. [2003]). […] No antagonism was observed between the derivatives and vancomycin or cefazolin (Table S1).
17 Table S1. The derivatives combined with vancomycin or cefazolin against S. epidermidis
Derivatives Antibiotics MIC (mg/L) FICIa Synergyb
Derivative Antibiotic In combination
alone alone (Derivative/Antibiotic)
19 a The FICI was calculated as FIC indexes= (MICderivative A in combination/MICderivative A
20 alone)+(MICantibiotic B in combination/MIC antibiotic B alone).
21 b The interaction between the two antibacterials is noted as follows: FIC index≤0.5,
22 Synergy (+); 0.5<FIC index≤4 (-), No interaction; FIC≥4.0, Antagonism.

In test [2] the test system is 24-h biofilms of S. epidermidis ATCC 35984. The test is described as follows: Rabbit subcutaneous S. epidermidis biofilm infection model. It is filed as in vivo, New Zealand White rabbits. To be noted: vancomycin 128 mg/l, local injection at 0, 24, 48 h; 72 h. How it is done: To test the effectiveness in vivo of H2-74 and H2-81, 24-h biofilms of S. epidermidis grown on polyethylene disks were imbedded subcutaneously into the New Zealand White rabbits and treated with the derivatives for 72 h in a modification of the method used previously (He et al. [2011]). Disks were cut from polyethylene 96-well plates (8 mm diameter, 1 mm thickness), sterilized with 75 % ethanol and placed in a Petri dish (100 mm diameter). An overnight culture of S. epidermidis ATCC 35984 (20 ml) was inoculated into the dish and incubated at 37 °C for 24 h. The disks covered with biofilms were then implanted subcutaneously in female New Zealand White rabbits (2.0–2.5 kg) that had been anesthetized with pentobarbital sodium (5 mg/kg i.v.). Four incisions (10 mm) were made on the back of the rabbit along the spine bilaterally after removal of fur, and the sub cutis was carefully dissected to form a 2-cm × 3-cm cavity. Two biofilm-covered polyethylene disks were implanted into each cavity, and to minimize the effect of between-animal variation, four different treatments were given locally to each rabbit.
Vancomycin (128 mg/l) and 0.1 % DMSO were administered as the controls. Twenty-four hours after the last treatment, the rabbits were euthanized and the implants were taken out with sterile forceps. Biofilms were scraped from the disks, and the viable bacteria were determined by CFU counting, as previously described (He et al. [2011]). All animals were housed and used in compliance with the guidelines of the Institute of Animal Care and Use Committee, and the protocol was approved by the committee.

For test [3], the system named is mature (24-h-old) biofilms of S. epidermidis ATCC 35984. Nature of the test: Bacterial viability in mature biofilms by CLSM with Live/Dead staining. The note with it: Staphylococcus epidermidis, ATCC35984, 16 h, read-out: proportion of viable cells in mature biofilms. In kind it is cell-based. As for the experimental part:
A diluted overnight culture of the bacteria was inoculated into cell culture glass bottom dishes (WPI, USA) and incubated at 37 °C for 24 h. […] The biofilms were washed with PBS and stained with SYTO9 and propidium iodide (PI), both of which were used at a concentration of 1 μM. SYTO9-stained live cells and PI-stained cells dead in biofilms were visualized by a Leica TCS SP5 confocal laser scanning microscope with a ×63 1.4-NA oil immersion objective. Three-dimensional biofilm images were created by IMARIS 7.0.0 software (Bitplane).

The record followed here is article PMC4057637, “Efficacy of novel antibacterial compounds targeting histidine kinase YycG protein” (Applied Microbiology and Biotechnology, 2014).

On to `Cc1nnc(SCC2=C(C(=O)O)N3C(=O)[C@@H](NC(=O)Cn4cnnn4)[C@H]3SC2)s1` [cefazolin, reference compound], for which the “MIC Antibiotic alone” value in test [1] was 8 µg/mL.

For `CN[C@H](CC(C)C)C(=O)N[C@H]1C(=O)N[C@@H](CC(N)=O)C(=O)N[C@H]2C(=O)N[C@H]3C(=O)N[C@H](C(=O)N[C@H](C(=O)O)c4cc(O)cc(O)c4-c4cc3ccc4O)[C@H](O)c3ccc(c(Cl)c3)Oc3cc2cc(c3O[C@@H]2O[C@H](CO)[C@@H](O)[C@H](O)[C@H]2O[C@H]2C[C@](C)(N)[C@H](O)[C@H](C)O2)Oc2ccc(cc2Cl)[C@H]1O` [vancomycin, reference compound], the “viable bacteria recovered from implanted disks” value in test [2] amounted to 5.21 ± 0.24 log10 CFU/cm^2. Further, the “MIC Antibiotic alone” value in test [1] amounted to 4 µg/mL. In addition, the viability at 128 µg/mL in test [3] was found to be 88.6%.
